Reference: US12582104B2, “Mutant myocilin disease model and uses thereof” (Regeneron Pharmaceuticals, Inc., priority 2021, dated 2026)

System: SAM-MYOC mice
Test: Intraocular pressure (IOP) in SAM-MYOC mice
Assay type: in vivo, mouse
Settings: SAM-MYOC mice approximately 10 weeks after AAV2.Y3F-SAM-g4; one drop per eye; IOP at 2, 4, 6, and 24 hours
Procedure: To validate the SAM mice comprising a humanized MYOC locus comprising a Y437H mutation (SAM-MYOC mice), SAM-MYOC mice homozygous or heterozygous for the humanized MYOC locus were treated with AAV2.Y3F-SAM-g4, AAV2.Y3F-SAM-g5, an AAV2.Y3F-SAM-LacZ control, or nothing (naïve). […] This validated the SAM-MYOC mice as a suitable MYOC disease model with increased IOP.
IOP-lowering drugs used to treat glaucoma patients were then tested as a proof-of-concept to determine if they could lower the IOP observed in the SAM-MYOC mice following treatment with SAM-g4. We tested two IOP-lowering drugs: (1) timolol (a beta blocker that suppresses aqueous humor formation); and (2) RHOPRESSA® (a ROCK inhibitor that increases outflow of aqueous humor). […] At 0 hours, the IOP was measured, and each eye received one drop of either timolol or RHOPRESSA®, and IOP was measured at 2, 4, 6, and 24 hours after treatment.
An siRNA targeting human MYOC was then tested to determine if it could lower the high IOP observed in the SAM-MYOC mice following treatment with SAM-g4. SAM-g4 was administered via intracameral (IC) injection at day 0, and baseline IOP was measured. IOP was then measured over the following five weeks. At week five, MYOC siRNA #1 (1 μL, 15 μg dose) was administered via intravitreal (IVT) injection, and IOP was measured at various timepoints over the subsequent weeks. […]

With CC(C)(C)NC[C@H](O)COc1nsnc1N1CCOCC1 [timolol] the “IOP after IOP-lowering drug” value was “effective at lowering IOP”.
